Measurements reported in US12017994B2 (SYMBERIX, INC., priority 2017, dated 2024).
Values joined by “and” are separate entries in the source; they are usually repeats but may differ in a detail not shown here. Equal entries are not always repeated. “Also recorded” adds a separate entry of the source. Where two headings read alike, the source gives them in different places.

Experiments:
[1] = tested on: β-glucuronidase activity in live, cultured bacterial cells; test: β-glucuronidase activity in live, cultured bacterial cells (PNPG substrate); format: cell-based; settings: 2 hour incubation
[2] = biological target: purified E. coli GUS (Escherichia coli (strain K12), UniProt P05804); test: PNPG-PNP GUS cleavage assay, purified E. coli GUS; format: biochemical; settings: preincubation one minute to four hours
[3] = tested on: GUS activity in live E. coli; test: PNPG-PNP GUS cleavage assay, live E. coli
[4] = biological target: E. coli GUS (Escherichia coli (strain K12), UniProt P05804); settings: 30 minutes incubation, then NAD+ and UDH
Description: Addition of UDH and nicotinamide adenine dinucleotide (NAD+) to a reaction solution containing free GA results in the catalysis of free GA to D-glucurate and the concomitant reduction of NAD+ to NADH. NADH can be detected photometrically by monitoring absorbance at 340 nm (FIG. 4).

[5] = biological target: Purified bacterial β-glucuronidases (Escherichia coli, UniProt P05804); format: biochemical; settings: PNPG substrate, 5 nM enzyme
Description: Successful drug candidate compounds were subjected to numerous biochemical and cellular assays. Purified bacterial β-glucuronidases were challenged with compounds to determine inhibition properties in a standard, robust activity assay, utilizing p-nitrophenyl glucuronide (PNPG) as the enzymatic substrate.

[6] = parent compound, read-out: Cell Based Inhibition IC50 (nM) Parent

E. coli GUS, sequence (P05804 whole entry, looked up): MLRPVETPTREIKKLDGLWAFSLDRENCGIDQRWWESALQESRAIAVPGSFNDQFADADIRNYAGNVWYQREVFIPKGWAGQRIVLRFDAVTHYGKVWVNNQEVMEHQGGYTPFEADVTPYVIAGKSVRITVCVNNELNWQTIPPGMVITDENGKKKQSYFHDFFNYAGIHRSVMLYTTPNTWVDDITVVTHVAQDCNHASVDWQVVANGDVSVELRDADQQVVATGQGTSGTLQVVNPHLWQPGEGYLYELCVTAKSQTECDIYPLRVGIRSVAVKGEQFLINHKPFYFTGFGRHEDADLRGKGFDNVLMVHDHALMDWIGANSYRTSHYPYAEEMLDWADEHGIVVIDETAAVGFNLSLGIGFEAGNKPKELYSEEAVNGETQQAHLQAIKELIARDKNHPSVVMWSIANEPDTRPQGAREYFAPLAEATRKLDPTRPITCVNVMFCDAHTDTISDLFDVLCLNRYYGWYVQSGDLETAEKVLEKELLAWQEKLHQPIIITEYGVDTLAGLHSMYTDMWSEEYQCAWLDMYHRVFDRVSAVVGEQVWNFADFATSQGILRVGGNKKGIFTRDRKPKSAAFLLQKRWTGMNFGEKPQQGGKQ
purified E. coli GUS, sequence (P05804 whole entry, looked up): as above

## CCOc1ccc(NC(=O)N(CCO)Cc2cc3cc(C)cc(C)c3[nH]c2=O)cc1
[1]; [6]
  IC50: 890 nM

## CCOc1ccc(NC(=S)N(CCO)Cc2cc3cc(C)cc(C)c3[nH]c2=O)cc1 [Inh1, reference compound]
[1]; [6]
  IC50: 890 nM

## CCOc1ccc(NC(=S)N(CCO[C@@H]2O[C@H](C(=O)O)[C@@H](O)[C@H](O)[C@H]2O)Cc2cc3cc(C)cc(C)c3[nH]c2=O)cc1 [Inh1-G]
[2]
  IC50: ~1 µM
[1]; glucuronide of the compound, read-out: Cell Based Inhibition IC50 (nM) Glucuronide
  IC50: 8.8 nM
[3]; 1-min pre-incubation
  increase in potency in live E. coli: approximately 20 fold
[3]; 2-hr pre-incubation
  increase in potency in live E. coli: ~100 fold
[3]; 4-hr pre-incubation
  increase in potency in live E. coli: ~1000 fold and > 1000 fold
[3]; read-out: IC50 in live E. coli, after 4 hr incubation
  IC50: 0.001 µM
[4]
  free GA / NADH formation after incubation with E. coli GUS (cleavage by GUS): No free GA was detected; also recorded: does not cleave

## Cc1cc(C)c2[nH]c(=O)c(CN(CCO)C(=O)Nc3ccccc3-c3ccccc3)cc2c1 [Ref #14′, 1-[(6,8-dimethyl-2-oxo-1H-quinolin-3-yl)methyl]-1-(2-hydroxyethyl)-3-(2-phenylphenyl)urea]
[5]
  IC50: 6.16 µM and 6.44 µM

## Cc1cc(C)c2[nH]c(=O)c(CN(CCO)C(=O)Nc3cccnc3)cc2c1 [Ref #18′, 1-[(6,8-dimethyl-2-oxo-1H-quinolin-3-yl)methyl]-1-(2-hydroxyethyl)-3-(3-pyridyl)urea]
[5]
  IC50: > 50 µM

## Cc1cc(C)c2[nH]c(=O)c(C(C)N(CCO)C(=O)Nc3ccccc3C(C)C)cc2c1 (stereo not shown) [Ref #29′, 1-[1-(6,8-dimethyl-2-oxo-1H-quinolin-3-yl)ethyl]-1-(2-hydroxyethyl)-3-(2-isopropylphenyl)urea]
[5]
  IC50: 6.44 µM

## Cc1cc(C)c2[nH]c(=O)c(C(C)N(CCO)C(=O)Nc3ccc(F)cc3I)cc2c1 (stereo not shown) [Ref #30′, 1-[1-(6,8-dimethyl-2-oxo-1H-quinolin-3-yl)ethyl]-3-(4-fluoro-2-iodo-phenyl)-1-(2-hydroxyethyl)urea]
[5]
  IC50: 13 µM

## Cc1cc(C)c2[nH]c(=O)c(C(C)N(CCO)C(=O)Nc3ccccc3C)cc2c1 (stereo not shown) [Ref #31′, 1-[1-(6,8-dimethyl-2-oxo-1H-quinolin-3-yl)ethyl]-1-(2-hydroxyethyl)-3-(o-tolyl)urea]
[5]
  IC50: > 50 µM

## COc1ccc(NC(=O)N(CCO)C(C)c2cc3cc(C)cc(C)c3[nH]c2=O)cc1 (stereo not shown) [Ref #34′, 1-[1-(6,8-dimethyl-2-oxo-1H-quinolin-3-yl)ethyl]-1-(2-hydroxyethyl)-3-(4-methoxyphenyl)urea]
[5]
  IC50: > 50 µM

## Cc1cccc(NC(=O)N(CCO)Cc2cc3cc(C)cc(C)c3[nH]c2=O)c1 [Ref #38′, 1-[(6,8-dimethyl-2-oxo-1H-quinolin-3-yl)methyl]-1-(2-hydroxyethyl)-3-(m-tolyl)urea]
[5]
  IC50: 1.66 µM

## Cc1cc(C)c2[nH]c(=O)c(CN(CCO)C(=O)Nc3cccc(C(C)C)c3)cc2c1 [Ref #41′, 1-[(6,8-dimethyl-2-oxo-1H-quinolin-3-yl)methyl]-1-(2-hydroxyethyl)-3-(3-isopropylphenyl)urea]
[5]
  IC50: 6.73 µM

## C#Cc1cc(F)ccc1NC(=O)N(CCO)Cc1cc2cc(C)cc(C)c2[nH]c1=O [Ref #45′, 1-[(6,8-dimethyl-2-oxo-1H-quinolin-3-yl)methyl]-3-(2-ethynyl-4-fluoro-phenyl)-1-(2-hydroxyethyl)urea]
[5]
  IC50: 1.1 µM

## chenodeoxycholate-glucuronide [reference compound]
[4]
  free GA / NADH formation after incubation with E. coli GUS (cleavage by GUS): detected only for the positive control
